Assay results as given in patent publication US5958983A, “Polyaromatic antiviral compositions” (Pharmacia & Upjohn Company, priority 1998, dated 1999).

How the values were obtained:
HSV-1 = assay: Inhibition of HSV-1 viral replication (virus yield reduction assay, Vero cells); format: cell-based, herpes simplex virus type-1; conditions: 14-16 hours
Method: (§1) Compounds of the formulas II and III of the present invention are evaluated in an assay to measure the inhibition of HSV-1 viral replication in the presence of drug over a 14-16 hour period. The assay is discussed in detail by Pritchard, M. N. et al. "A Microliter Virus Yield Reduction Assay for the Evaluation of Antiviral Compounds Against Human Cytomegalovirus and Herpes Simplex Virus", J. Virol. Meth., Vol. 28, pp 101-106 (1990). Briefly, 80% confluent monolayers of Vero cells in 24 well plates are infected with low multiplicities of HSV-1 (MOI=0.001). After an absorption period of 1 hour at 37° C., the monolayers are rinsed with culture media and aliquots of compounds diluted into tissue culture media are added for 14-16 hours at 37° C. in a CO2 atmosphere. The growth media is removed and 1 ml of fresh media is added to each well and plates are placed at -70° C. After a 1-5 day storage period the plates are rapidly thawed, samples are collected on ice and titrated on fresh Vero cell monolayers. Viral plaques are stained with 0.1% crystal violet in 20% alcohol for 10 minutes and are counted. Data are calculated to reflect the percentage of inhibition at indicated concentration relative to infected, non-drug treated controls.
(§2) In the Tables, the sign "+++" refers to >90% inhibition at the indicated concentration. The sign "++" refers to >50% inhibition at the indicated concentration. The sign "+" refers to <50% inhibition at the indicated concentration. The sign "-" refers that no inhibitory activity is observed at the indicated concentration. A blank cell means the datum is not available.

VZV = assay: Inhibition of VZV replication (plaque reduction, HFF cells); format: cell-based, varicella zoster virus; conditions: five days
Method: Antiviral activity against VZV are evaluated in an assay to measure the reduction of viral replication in the number viral plaques formed over five days of incubation in the presence of compounds of the present invention. Aliquots of VZV are added for 90 minutes to 24 well plates having HFF cells at 80% confluence to yield approximately 25 plaques for media treated wells. The plates are flicked and dilutions of compounds in tissue culture media at 2 time strength are added (0.5 ml per well). Immediately following the addition of drug 0.5 ml of 1.0% agarose is added to the wells and the plates are gently tapped to aid mixing. This final concentration of agarose (0.5%) is […] to solidify at 37° C. and serves as a semi solid overlay medium. Plates are undisturbed for five days. On day 5 the plates are examined microscopically for toxicity and plaques are counted using low power microscopy.
as §2

HSV-2 = assay: Inhibition of HSV-2 viral replication (substantially same assay as HSV-1); format: cell-based, herpes simplex virus type-2; conditions: 14-16 hours
Method: as §1
Compounds of the formulas II and III of the present invention are also evaluated in substantially the same assay as described above to measure the inhibition of HSV-2 viral replication.
as §2

Compound	% Inhibition Against HSV-1 Viral Replication, 5 μm (HSV-1)	% Inhibition Against HSV-1 Viral Replication, 30 μm (HSV-1)	% Inhibition Against VZV Viral Replication, 10 μm (VZV; 10 μm)	% Inhibition Against HSV-2 Viral Replication, 1 μm (HSV-2)	% Inhibition Against HSV-2 Viral Replication, 10 μm (HSV-2)	% Inhibition Against VZV Viral Replication, 2 μm (VZV)
O=S(=O)(c1ccc(OCc2ccc(Br)cc2)cc1)c1ccc(OCc2ccc(Br)cc2)cc1 [Example 18, bis(4-bromobenzyloxy)(sulfonyldi-4,1-phenylene)]	+ (<50% inhibition at the indicated concentration)	++ (>50% inhibition at the indicated concentration)	+++ (>90% inhibition at the indicated concentration)			
Cc1cccc(NS(=O)(=O)c2ccc(Oc3ccc(S(=O)(=O)Nc4cccc(C)c4)cc3)cc2)c1 [Example 11, bis[N-(3-methylphenyl)aminosulfonyl](oxydi-4,1-phenylene)]	- (no inhibitory activity is observed at the indicated concentration)	++ (>50% inhibition at the indicated concentration)				
O=S(=O)(c1ccc(O)cc1)c1ccc(OCc2ccc(Cl)cc2)cc1 [Example 22, (4-chlorobenzyloxy)hydroxy(sulfonyldi-4,1-phenylene)]	- (no inhibitory activity is observed at the indicated concentration)	++ (>50% inhibition at the indicated concentration)				
O=S(=O)(c1ccc(OCc2ccc(F)cc2)cc1)c1ccc(OCc2ccc(F)cc2)cc1 [Example 20, bis(4-fluorobenzyloxy)(sulfonyldi-4,1-phenylene)]	+ (<50% inhibition at the indicated concentration)	++ (>50% inhibition at the indicated concentration)				
COc1ccc(NC(=S)Nc2ccc(Cl)cc2)cc1NC(=S)Nc1ccc(Cl)cc1 [Example 6, N,N"-(4-methoxy-1,3-phenylene)bis[N'-(4-chlorophenyl)thiourea]]	- (no inhibitory activity is observed at the indicated concentration)	+ (<50% inhibition at the indicated concentration)				
O=S(=O)(c1ccc(OCc2ccc(Cl)cc2)cc1)c1ccc(OCc2ccc(Cl)cc2)cc1 [Example 17, bis(4-chlorobenzyloxy)(sulfonyldi-4,1-phenylene)]	+ (<50% inhibition at the indicated concentration)	++ (>50% inhibition at the indicated concentration)		++ (>50% inhibition at the indicated concentration)	++ (>50% inhibition at the indicated concentration)	++ (>50% inhibition at the indicated concentration)
COc1ccc(NC(=O)Nc2ccc(Cl)cc2)cc1NC(=O)Nc1ccc(Cl)cc1 [Example 3, N,N"-(4-methoxy-1,3-phenylene)bis[N'-(4-chlorophenyl)urea]]	+ (<50% inhibition at the indicated concentration)	+ (<50% inhibition at the indicated concentration)				
Cc1ccc(NS(=O)(=O)c2cccc(S(=O)(=O)Nc3ccc(C)cc3)c2)cc1 [Example 10, N,N"-(1,3-phenylene)bis[N-(p-tolyl)aminosulfonyl]]	+ (<50% inhibition at the indicated concentration)	++ (>50% inhibition at the indicated concentration)				
COc1cccc(NS(=O)(=O)c2ccc(Oc3ccc(S(=O)(=O)Nc4cccc(OC)c4)cc3)cc2)c1 [Example 9, bis[N-(3-methoxyphenyl)aminosulfonyl](oxydi-4,1-phenylene)]	+ (<50% inhibition at the indicated concentration)	+++ (>90% inhibition at the indicated concentration)				
O=S(=O)(c1ccc(OCc2ccncc2)cc1)c1ccc(OCc2ccncc2)cc1 [Example 19, bis [(4-pyridyl)methoxy](sulfonyldi-4,1-phenylene)]	+ (<50% inhibition at the indicated concentration)	+ (<50% inhibition at the indicated concentration)				
O=C(Nc1ccc(Oc2ccc(NC(=O)c3ccco3)cc2)cc1)c1ccco1 [Example 16, N,N"-(oxydi-4,1-phenylene)bis(2-furancarboxamide)]	+ (<50% inhibition at the indicated concentration)	++ (>50% inhibition at the indicated concentration)				
Cc1ccc(NC(=S)Nc2ccc(Cl)cc2)cc1NC(=S)Nc1ccc(Cl)cc1 [Example 1, N,N"-(4-methyl-1,3-phenylene)bis[N'-(4-chlorophenyl)thiourea]]	- (no inhibitory activity is observed at the indicated concentration)	+ (<50% inhibition at the indicated concentration)				
O=[N+]([O-])c1ccc(COc2ccc(S(=O)(=O)c3ccc(O)cc3)cc2)cc1 [Example 21, hydroxy(4-nitrobenzyloxy)(sulfonyldi-4,1-phenylene)]	- (no inhibitory activity is observed at the indicated concentration)	++ (>50% inhibition at the indicated concentration)				
S=C(NCCc1ccccc1)Nc1ccc(Oc2ccc(NC(=S)NCCc3ccccc3)cc2)cc1 [Example 15, N,N"-(oxydi-4,1-phenylene)bis[N'-(2-phenylethyl)thiourea]]	+ (<50% inhibition at the indicated concentration)	+ (<50% inhibition at the indicated concentration)		+ (<50% inhibition at the indicated concentration)	+ (<50% inhibition at the indicated concentration)	+++ (>90% inhibition at the indicated concentration)
N=C(Nc1ccc(Cc2ccc(NC(=N)c3ccccc3)cc2)cc1)c1ccccc1 [Example 13, N,N"-(methylenedi-4,1-phenylene)bis [benzenecarboximidamide]]	+ (<50% inhibition at the indicated concentration)	+++ (>90% inhibition at the indicated concentration)		+ (<50% inhibition at the indicated concentration)	+++ (>90% inhibition at the indicated concentration)	+ (<50% inhibition at the indicated concentration)
COc1ccc(NC(=O)Nc2ccc(C)cc2)cc1NC(=O)Nc1ccc(C)cc1 [Example 4, N,N"-(4-methoxy-1,3-phenylene)bis[N'-(p-tolyl)urea]]	+ (<50% inhibition at the indicated concentration)	+ (<50% inhibition at the indicated concentration)				
